The text below walks through data of patent US11766425B2, “Antibiotic combination therapies” (BIOVERSYS AG, priority 2019, dated 2023).

Type in all cases: cell-based, Acinetobacter baumannii
The subject of assay [1] is A. baumannii LAC-4 strain. The assay can be described thus: broth microdilution checkerboard MIC/synergy. The settings on record: for FICI / Interpretation: second antibiotic in combination with rifabutin, LAC-4, CA-MHB. On the procedure: (§1) Checkerboards were performed according to the CLSI parameters used for microbroth dilution MIC5. CA-MHB, iron-depleted CA-MHB (ID-CA-MHB) or RPMI supplemented with 10% FCS medium were used as specified and ID-CA-MHB was prepared according to CLSI guidelines. […] FICI is calculated as follows: […]
The checkerboards were performed in CA-MHB or ID-CA-MHB for cefiderocol.
Background: Dilution methods test growth across graded concentrations, often in twofold steps.

A further assay has as its system A. baumannii 401046-18. The assay can be described thus: broth microdilution checkerboard MIC/synergy. As to the method: as §1
In a further assay the test system is A. baumannii 401255-18. Kind of assay: broth microdilution checkerboard MIC/synergy. On the procedure:
as §1

The next assay has as its system A. baumannii 402292-17. Kind of assay: broth microdilution checkerboard MIC/synergy. On the procedure: as §1
A further assay deals with A. baumannii 402608-17. The assay can be described thus: broth microdilution checkerboard MIC/synergy. As to the method:
as §1

A further assay concerns A. baumannii HUMC1. The assay can be described thus: broth microdilution checkerboard MIC/synergy. On the procedure: as §1
The test system of the next assay is A. baumannii IHMA1013816. The assay can be described thus: broth microdilution checkerboard MIC/synergy. The settings on record: strain IHMA1013816; rifampicin/colistin in combination. On the procedure: as §1
In the next assay the test system is A. baumannii IHMA690517. Kind of assay: broth microdilution checkerboard MIC/synergy. As to the method: as §1
The next assay concerns A. baumannii IHMA867231. The assay can be described thus: broth microdilution checkerboard MIC/synergy. As to the method: as §1
The subject of a further assay is A. baumannii IHMA919656. Kind of assay: broth microdilution checkerboard MIC/synergy. As to conditions: strain IHMA919656; rifampicin/colistin in combination. On the procedure:
as §1

A further assay deals with A. baumannii UNT087-1. The assay can be described thus: broth microdilution checkerboard MIC/synergy. As to the method:
as §1

The test system of another assay is A. baumannii UNT091-1. The assay can be described thus: broth microdilution checkerboard MIC/synergy. As to conditions: Acinetobacter baumannii, UNT0911, strain UNT091-1; antibiotic alone; rifampicin/colistin checkerboard; read-out: MICs alone. As to the method:
as §1

The test system of a further assay is A. baumannii UNT191-1. Kind of assay: broth microdilution checkerboard MIC/synergy. As to the method: as §1
In the next assay the test system is A. baumannii UNT239-1. Kind of assay: broth microdilution checkerboard MIC/synergy. As to conditions: strain UNT239-1; rifampicin/colistin in combination. On the procedure: as §1
In assay [2] the test system is panel of MDR clinical isolates of A. baumannii. As to the method:
as §1

Consider `C[C@@H](O)[C@H]1C(=O)N2C(C(=O)O)=C(S[C@@H]3CN[C@H](C(=O)N(C)C)C3)[C@H](C)[C@H]12` [Meropenem, meropenem], for which, in assay [1], the FICI came out at 1; the Interpretation entry was “indifferent (indifferent (FICI>0.50 and ≤4))”.

`CN(C)c1ccc(O)c2c1C[C@H]1C[C@H]3[C@H](N(C)C)C(O)=C(C(N)=O)C(=O)[C@@]3(O)C(O)=C1C2=O` [Minocycline, minocycline]: in assay [1], the FICI is given as 1; the Interpretation result is “indifferent (indifferent (FICI>0.50 and ≤4))”.

`NC[C@H]1O[C@H](O[C@H]2[C@H](O)[C@@H](O[C@H]3O[C@H](CO)[C@@H](O)[C@H](N)[C@H]3O)[C@H](N)C[C@@H]2N)[C@H](N)C[C@@H]1O` [Tobramycin, tobramycin]: in assay [1], the FICI worked out at 1.5; the Interpretation entry was “indifferent (indifferent (FICI>0.50 and ≤4))”.

As to `CN(C)[C@@H]1C(O)=C(C(N)=O)C(=O)[C@@]2(O)C(O)=C3C(=O)c4c(O)c(NC(=O)CN5CCCC5)cc(F)c4C[C@H]3C[C@@H]12` [Eravacycline, eravacycline], in [1], the FICI is 1; the Interpretation result is “indifferent (indifferent (FICI>0.50 and ≤4))”.

As to `CO[C@H]1/C=C/O[C@@]2(C)Oc3c(C)c(O)c4c(O)c(c(/C=N/N5CCN(C)CC5)c(O)c4c3C2=O)NC(=O)/C(C)=C\C=C\[C@H](C)[C@H](O)[C@@H](C)[C@@H](O)[C@@H](C)[C@H](OC(C)=O)[C@@H]1C` [Rifampicin, rifampicin], the MIC stood at 512 µg/mL in the assay on A. baumannii 401046-18 (Acinetobacter baumannii, 40104618, strain 401046-18, antibiotic alone, rifampicin/colistin checkerboard, read-out: MICs alone); 512 µg/mL in the assay on A. baumannii 401255-18 (Acinetobacter baumannii, 40125518, strain 401255-18, antibiotic alone, rifampicin/colistin checkerboard, read-out: MICs alone); 512 µg/mL in the assay with A. baumannii 402292-17 (Acinetobacter baumannii, 40229217, strain 402292-17, antibiotic alone, rifampicin/colistin checkerboard, read-out: MICs alone); 512 µg/mL with A. baumannii 402608-17 (Acinetobacter baumannii, 40260817, strain 402608-17, antibiotic alone, rifampicin/colistin checkerboard, read-out: MICs alone); 4 µg/mL in the assay with A. baumannii HUMC1 (Acinetobacter baumannii, HUMC1, read-out: MICs alone); 4 µg/mL in the assay on A. baumannii IHMA690517 (Acinetobacter baumannii, IHMA690517, strain IHMA690517, antibiotic alone, rifampicin/colistin checkerboard, read-out: MICs alone). The MIC with A. baumannii IHMA867231 (Acinetobacter baumannii, IHMA867231, strain IHMA867231, antibiotic alone, rifampicin/colistin checkerboard, read-out: MICs alone) worked out at 512 µg/mL; in the assay with A. baumannii UNT087-1 (Acinetobacter baumannii, UNT0871, strain UNT087-1, antibiotic alone, rifampicin/colistin checkerboard, read-out: MICs alone), 4 µg/mL; with A. baumannii UNT091-1 it was 4 µg/mL; in the assay with A. baumannii UNT191-1 (Acinetobacter baumannii, UNT1911, strain UNT191-1, antibiotic alone, rifampicin/colistin checkerboard, read-out: MICs alone), 4 µg/mL. Besides, the MICs combi in the assay with A. baumannii 401046-18 (strain 401046-18, rifampicin/colistin in combination) came to 64 mg/L; in the assay on A. baumannii 401255-18 (strain 401255-18, rifampicin/colistin in combination), 128 mg/L; in the assay on A. baumannii 402292-17 (strain 402292-17, rifampicin/colistin in combination), 256 mg/L; in the assay with A. baumannii 402608-17 (strain 402608-17, rifampicin/colistin in combination), 64 mg/L; in the assay with A. baumannii HUMC1 (strain HUMC1, rifampicin/colistin in combination) it was 1 mg/L; in the assay on A. baumannii IHMA1013816, 0.06 mg/L. Besides, the MICs combi with A. baumannii IHMA690517 (strain IHMA690517, rifampicin/colistin in combination) worked out at 0.06 mg/L; in the assay on A. baumannii IHMA867231 (strain IHMA867231, rifampicin/colistin in combination), 32 mg/L; with A. baumannii IHMA919656 it was 0.03 mg/L; with A. baumannii UNT087-1 (strain UNT087-1, rifampicin/colistin in combination) it was 4 mg/L; in the assay on A. baumannii UNT191-1 (strain UNT191-1, rifampicin/colistin in combination) it was 0.25 mg/L; in the assay on A. baumannii UNT239-1, 0.25 mg/L. Besides, the MICs combi in assay [1] (strain LAC-4, rifampicin/colistin in combination) worked out at 0.06 mg/L. Besides, the “rifampicin combination MICs” value in [2] (in combination with colistin, isolates with mutations in the rpoB gene) was at least 32 mg/L. Besides, the “strains on which synergy was observed” value in [2] (rifampicin with colistin) stood at 88%.

In the case of `CO/N=C(\C(=O)N[C@@H]1C(=O)N2C(C(=O)O)=C(COC(C)=O)CS[C@H]12)c1csc(N)n1` [Cefotaxime, cefotaxime], in [1], the FICI was 1.5; the Interpretation result was “indifferent (indifferent (FICI>0.50 and ≤4))”.
